Experimental data from patent US12252701B2, “Chimeric antigen receptor T cell therapy” (KITE PHARMA, INC., priority 2020, dated 2025).

How the values were obtained:
[1] = test system: phospho-STAT panel (pSTAT3/4/5), CD3+ T cells; assay: phospho-STAT induction by IL-6, MesoScale Discovery phospho-STAT panel; assay type: cell-based, human; details: for pSTAT3 / pSTAT4 / pSTAT5: CD3+ T cells
Procedure: CD19 CAR-T, PBMC or CD3+ T cells (AllCells) were thawed and rested 0/N at 37° C. in R10 media. Cells were seeded at 700,000 cells/well and were either untreated or treated with 100 ng/ml IL6+drug at indicated concentrations for 20 minutes at 37° C. The cells were then washed with cold PBS and followed by 60 μl of Tris lysis buffer (provided by MSD) for 30 minutes on ice. Lysates were collected by spin down for 10 minutes at >10,000 rpm. 25 μl/well per condition was used for MesoScale Discovery (MSD) assay using the phospho-STAT panel (pSTAT3/4/5) from MesoScale Discovery following the manufacturer's protocol. pSTAT panel plates were blocked with 150 μl of blocker A solution for 1 hr at RT with shaking. Plates were washed three times with 1× Tris wash buffer. 25 μl of lysate samples were added per well, incubated 2 hr at room temperature or at 4° C. overnight. Plates were washed 3 times with 1× tris wash buffer and then 25 μl of detection antibody solution were added to each well and incubated for 1 hr at room temperature with shaking. Plates were washed and 1× read buffer added to each well and plates were read on the MSD instrument.

[2] = Clinical pharmacokinetic data converted to in vitro concentrations; details: human, in vivo
Excerpt: Given the different potencies of the JAK inhibitors and different pharmacokinetic properties for each drug, it was sought to test each drug at a relevant range of physiological concentrations based on clinical dosing and reported pharmacokinetic data from repeat dose studies. Reported Cmax values in patient sera were converted to in vitro concentrations and adjusted for reported plasma protein binding.

[3] = test system: phospho-STAT-1, -3 and -5 in CD4, CD8 T cells and monocytes (CAR T product, PBMCs); assay: Intracellular phospho-STAT-1, -3, -5 by flow cytometry in immune cell subsets of CAR T product and PBMCs; assay type: cell-based, human; details: for pSTAT-5 inhibition: GM-CSF stimulated PBMC
Procedure: (§1) Further experiments were performed to look at impacts of JAK inhibitors on STAT phosphorylation in various immune cell subsets.

[4] = in vitro; details: human
Procedure: 96-well plates were coated with 100 μl of KIP-1 antibody per well at 1 μg/ml in PBS and plates were incubated at 4° C. overnight. CAR-T cells were thawed and were rested in ImmunoCult expansion medium and incubated overnight at 37° C. Cells were then counted and resuspended at 2 million cells/ml and seed at 200,000 cells per well in 100 μl of expansion medium with 10 ng/ml recombinant IL2. For groups treated with KIP-1, 100 μl of expansion medium were added with 2× final drug dilutions. For CD3/CD28 treated groups, 100 μl of expansion media were added with 2× final drug dilutions containing 25 μl/ml of CD3/CD28 T cell activator from StemCell Technologies. Cells were then incubated at 37° C. After 4 days, cells were counted and diluted 1 to 8-fold in expansion media and then transferred to a 24-well plate. Cell counts were repeated at day 7 and transferred to T25 flasks. On day 11, all cells were harvested and counted.

[5] = test system: phospho-STAT-1, -3 and -5 in purified CD14+ monocytes; assay: Intracellular phospho-STAT-1, -3, -5 by BD PhosphoFlow in purified monocytes; assay type: cell-based, human
Procedure: as §1

[6] = test system: NALM6.GFP.LUC.CD19 target cells; assay: Serial killing assay of CAR-T, percent cytotoxicity by luciferase detection; details: in vitro at clinically relevant dose levels
Procedure: The percent cytotoxicity to NALM6.GFP.LUC.CD19 target cells was measured by luciferase detection at each round.
In one embodiment, a serial killing assay is a combination of cell killing and how long it takes for CAR T cells to get exhausted under repeated stimulation. In one embodiment, a serial killing assay is a surrogate measure for CAR T cell persistence in vivo.

[7] = purified CD14+ monocytes, CAR T cell-derived supernatant, 30 min
[8] = purified CD14+ monocytes, rh-GM-CSF-induced
[9] = purified CD14+ monocytes, rhIFNg-induced
[10] = purified CD14+ monocytes, rhIL6-induced
[11] = purified monocytes, CAR T derived cytokines/supernatant stimulation, 30 min

## O=C(Nc1nc2cccc(-c3ccc(CN4CCS(=O)(=O)CC4)cc3)n2n1)C1CC1 [filgotinib]
[1]; 100 ng/ml IL-6 + drug 10 uM, 20 min, MSD signal (No stim. 689, IL-6 alone 33641)
  pSTAT3: 2169
[1]; 100 ng/ml IL-6 + drug 10 uM, 20 min, MSD signal (No stim. 1964, IL-6 alone 15405)
  pSTAT4: 2121
[1]; 100 ng/ml IL-6 + drug 10 uM, 20 min, MSD signal (No stim. 9210, IL-6 alone 17743)
  pSTAT5: 1610
[1]; IL-6 + drug 0.125 uM, MSD signal (No stim. 689, IL-6 alone 33641)
  pSTAT3: 23255
[1]; IL-6 + drug 0.125 uM, MSD signal (No stim. 1964, IL-6 alone 15405)
  pSTAT4: 9977
[1]; IL-6 + drug 0.125 uM, MSD signal (No stim. 9210, IL-6 alone 17743)
  pSTAT5: 10484
[1]; IL-6 + drug 0.5 uM, MSD signal (No stim. 689, IL-6 alone 33641)
  pSTAT3: 15242
[1]; IL-6 + drug 0.5 uM, MSD signal (No stim. 1964, IL-6 alone 15405)
  pSTAT4: 5570
[1]; IL-6 + drug 0.5 uM, MSD signal (No stim. 9210, IL-6 alone 17743)
  pSTAT5: 5170
[1]; IL-6 + drug 1 uM, MSD signal (No stim. 689, IL-6 alone 33641)
  pSTAT3: 11163
[1]; IL-6 + drug 1 uM, MSD signal (No stim. 1964, IL-6 alone 15405)
  pSTAT4: 4642
[1]; IL-6 + drug 1 uM, MSD signal (No stim. 9210, IL-6 alone 17743)
  pSTAT5: 3679
[1]; IL-6 + drug 5 uM, MSD signal (No stim. 689, IL-6 alone 33641)
  pSTAT3: 2667
[1]; IL-6 + drug 5 uM, MSD signal (No stim. 1964, IL-6 alone 15405)
  pSTAT4: 2172
[1]; IL-6 + drug 5 uM, MSD signal (No stim. 9210, IL-6 alone 17743)
  pSTAT5: 1797
[1]; IL-6 stimulation 100 ng/ml, 20 minutes, 10 μM to 0.125 μM
  effect on phosphorylated-STAT-1, STAT-3 and STAT-5 levels: reduction of phosphorylated-STAT-1, STAT-3 and STAT-5 levels in a dose-responsive manner
[1]; lower dose titration, IL-6 + drug 3.125 nM, MSD signal (No stim. 123, IL-6 alone 5767)
  pSTAT3: 4968
[1]; lower dose titration, IL-6 + drug 3.125 nM, MSD signal (No stim. 281, IL-6 alone 3624)
  pSTAT4: 3059
[1]; lower dose titration, IL-6 + drug 3.125 nM, MSD signal (No stim. 324, IL-6 alone 2352)
  pSTAT5: 2812
[1]; lower dose titration, IL-6 + drug 6.25 nM, MSD signal (No stim. 123, IL-6 alone 5767)
  pSTAT3: 6740
[1]; lower dose titration, IL-6 + drug 6.25 nM, MSD signal (No stim. 281, IL-6 alone 3624)
  pSTAT4: 4324
[1]; lower dose titration, IL-6 + drug 6.25 nM, MSD signal (No stim. 324, IL-6 alone 2352)
  pSTAT5: 2724
[1]; lower dose titration, IL-6 + drug 12.5 nM, MSD signal (No stim. 123, IL-6 alone 5767)
  pSTAT3: 6547
[1]; lower dose titration, IL-6 + drug 12.5 nM, MSD signal (No stim. 281, IL-6 alone 3624)
  pSTAT4: 3479
[1]; lower dose titration, IL-6 + drug 12.5 nM, MSD signal (No stim. 324, IL-6 alone 2352)
  pSTAT5: 2253
[1]; lower dose titration, IL-6 + drug 25 nM, MSD signal (No stim. 123, IL-6 alone 5767)
  pSTAT3: 5737
[1]; lower dose titration, IL-6 + drug 25 nM, MSD signal (No stim. 281, IL-6 alone 3624)
  pSTAT4: 3452
[1]; lower dose titration, IL-6 + drug 25 nM, MSD signal (No stim. 324, IL-6 alone 2352)
  pSTAT5: 2020
[1]; lower dose titration, IL-6 + drug 50 nM, MSD signal (No stim. 123, IL-6 alone 5767)
  pSTAT3: 6248
[1]; lower dose titration, IL-6 + drug 50 nM, MSD signal (No stim. 281, IL-6 alone 3624)
  pSTAT4: 3208
[1]; lower dose titration, IL-6 + drug 50 nM, MSD signal (No stim. 324, IL-6 alone 2352)
  pSTAT5: 1951
[1]; lower dose titration, IL-6 + drug 100 nM, MSD signal (No stim. 123, IL-6 alone 5767)
  pSTAT3: 5441
[1]; lower dose titration, IL-6 + drug 100 nM, MSD signal (No stim. 281, IL-6 alone 3624)
  pSTAT4: 2047
[1]; lower dose titration, IL-6 + drug 100 nM, MSD signal (No stim. 324, IL-6 alone 2352)
  pSTAT5: 1246
[2]
  PPB adj. in Vitro concentration: 1.28 µM
  clinically relevant dose level (in vitro concentration): ~1 µM
[3]; CAR T product
  inhibitory activity of each p-STAT, CD4 versus CD8 T cells: stronger inhibitory activity (magnitudes) of each p-STAT in CD4 T cells compared to CD8 T cells
[3]; CD4 CART cells
  Primary Cell IL-6 pSTAT1 signaling (% inhibition): 45%
  Primary Cell IL-6 pSTAT3 signaling (% inhibition): 50%
  Primary Cell IL-6 pSTAT5 signaling (% inhibition): 59%
[3]; CD8 CART cells
  Primary Cell IL-6 pSTAT1 signaling (% inhibition): 17%
  Primary Cell IL-6 pSTAT3 signaling (% inhibition): 38%
  Primary Cell IL-6 pSTAT5 signaling (% inhibition): 50%
[3]; CD3+ T cells
  pSTAT-5 inhibition: 40%
[3]; CD14+ monocytes
  pSTAT-5 inhibition: 28%
[3]; IL-6 stimulation
  effect on phosphorylated-STAT-1, -STAT-3 and -STAT5 levels: reduction of phosphorylated-STAT-1, -STAT-3 and -STAT5 levels
[3]; Monocytes within bulk PBMCs
  Primary cell GM-CSF-pSTAT5, inhibition: 28%
[3]; PBMC CD4 T cells
  Primary Cell IL-6 pSTAT1 signaling (% inhibition): 67%
  Primary Cell IL-6 pSTAT3 signaling (% inhibition): 52%
  Primary Cell IL-6 pSTAT5 signaling (% inhibition): 83%
[3]; PBMC CD8 T cells
  Primary Cell IL-6 pSTAT1 signaling (% inhibition): 26%
  Primary Cell IL-6 pSTAT3 signaling (% inhibition): 37%
  Primary Cell IL-6 pSTAT5 signaling (% inhibition): 49%
[3]; PBMC Monocytes
  Primary Cell IL-6 pSTAT1 signaling (% inhibition): 50%
  Primary Cell IL-6 pSTAT3 signaling (% inhibition): 74%
  Primary Cell IL-6 pSTAT5 signaling (% inhibition): 34%
[3]; T cells from PBMCs
  inhibitory activity of each p-STAT, CD4 versus CD8 T cells: stronger inhibitory activity (magnitudes) of each p-STAT in CD4 T cells compared to CD8 T cells
[3]; T cells within bulk PBMCs
  Primary cell GM-CSF-pSTAT5, inhibition: 40%
[4]
  viability at 0 day, 500 nM: 75%
  viability at 0 day, 1000 nM: 75%
  viability at 4 day, 500 nM: 61.1%
  viability at 4 day, 1000 nM: 59.9%
  viability at 8 day, 500 nM: 78.9%
  viability at 8 day, 1000 nM: 85.1%
  viability at 12 day, 500 nM: 91.8%
  viability at 12 day, 1000 nM: 87.7%
[5]
  IFN-gamma induction of pSTAT-1, 3 and 5: strongly suppressed
[5]; purified CD14+ monocytes
  pSTAT-5 induction by GM-CSF: not inhibited
[5]; [7]
  Monocyte-specific pSTAT1 signaling, inhibition: 91%
  Monocyte-specific pSTAT3 signaling, inhibition: 100%
  Monocyte-specific pSTAT5 signaling, inhibition: 0%
[5]; [8]
  Monocyte-specific pSTAT1 signaling, inhibition: na/ni
  Monocyte-specific pSTAT3 signaling, inhibition: na/ni
  Monocyte-specific pSTAT5 signaling, inhibition: 0%
[5]; [9]
  Monocyte-specific pSTAT1 signaling, inhibition: 100%
  Monocyte-specific pSTAT3 signaling, inhibition: 100%
  Monocyte-specific pSTAT5 signaling, inhibition: 98%
[5]; [10]
  Monocyte-specific pSTAT1 signaling, inhibition: na/ni
  Monocyte-specific pSTAT3 signaling, inhibition: 51%
  Monocyte-specific pSTAT5 signaling, inhibition: na/ni
[5]; purified monocytes stimulated by IL-6
  pSTAT-3 inhibition: 51%
[5]; [11]
  pSTAT1 inhibition: 91%
  pSTAT3 inhibition: 100%
[6]
  effect on CAR T cells in cell killing, serial killing and T cell expansion assays: not accompanied by a detrimental effect on CAR T cells
